Assay results from patent publication US12116356B2, “N-heterocyclic five-membered ring-containing capsid protein assembly inhibitor, pharmaceutical composition thereof, and use thereof” (CHIA TAI TIANQING PHARMACEUTICAL GROUP CO., LTD., priority 2018, dated 2024).
≈ marks a conversion by molar mass, not a printed value. Where two headings read alike, the source gives them in different places.

Legend:
[1] = In vivo pharmacokinetics (PK) study in rats; set-up: species or system SD rats
Procedure: SD rats, weighing 180˜220 g, were randomly divided into groups of three […] each after 3 to 5 days' acclimatization, and a series of the compounds were administered intragastrically to each group at a dose of 20 mg/kg.
The test animals (SD rats) were fasted for 12 hours before administration and fed 4 hours after the administration. They were free to access water before and after the experiment.
After the administration, about 0.2 mL of blood from the orbits was collected at 0 min, 15 min, 30 min, 1 h, 2 h, 4 h, 6 h, 8 h, 10 h, 24 h, 30 h, and 48 h. Within 30 minutes after anticoagulation with EDTA-K2, the plasma was separated by centrifugation at 4° C. and 4000 rpm for 10 minutes. Immediately after collecting all plasma, it was stored at −20° C. for testing.
50 μL of the plasma sample to be tested and standard curve sample were pipetted, and then thereto was added 500 μL of an acetonitrile solution containing an internal standard (diazepam 20 mg/mL). The resulting mixture was oscillated and mixed uniformly for 5 min, and then centrifugated at 12000 rpm for 10 min. 75 μL supernatant was pipetted, and 75 μL ultrapure water was added thereto for dilution, and mixed evenly. 1 μL of the resulting solution was pipetted for LC/MS/MS determination.

CYP 2B6 = CYP 2B6 (Homo sapiens (Human), UniProt P20813); assay: CYP450 enzyme inhibition study (liver microsomes, subtype IC50); format: in vitro ADME; settings: 30 minutes, read-out: Subtypes IC50 2B6
Procedure: (§1) 500 μL of a final incubation system contains 50 μL of liver microsomes (protein concentration: 0.2 mg/mL), 1 μL of mixed CYP450 specific substrates (CYP1A2, CYP 2B6, CYP 2C9, CYP2C19, CYP 2D6, and CYP 3A4), 398 μL PBS buffer (PH7.4), 1 μL specific positive inhibitor (positive control group) or the test compound (formulated with acetonitrile), and 50 μL NADPH+MgCl2. Duplicate incubation systems of 0.5 mL each were formulated for each CYP450 subtype. A total volume of 450 μL of a uniformly mixed solution of the substrate and the enzyme was formulated in each tube, and the solution and NADPH were pre-incubated at 37° C. for 5 minutes, respectively. Then 50 μL of the mixed solution of NADPH+MgCl2 was added for reaction. 50 μL of the reaction solution was taken out at 30 minutes, and the reaction was terminated with 300 μL of ice acetonitrile containing an internal standard. In addition, two control groups of 500 μL each without NADPH were prepared in parallel as a negative control group.
(§2) Sample pre-treatment: To 50 μL of the incubated sample was added 300 μL of ice acetonitrile containing an internal standard, and then precipitated. After vortexing for 5 minutes, the sample was centrifugated (12000 rpm, 4° C.) for 10 minutes. 75 μL of the supernatant was pipetted, and 75 μL of ultrapure water was added thereto for dilution and mixed uniformly. 1 μL of the resulting solution was injected for analysis.

CYP1A2 = CYP1A2 (Homo sapiens (Human), UniProt P05177); assay: as above; format: in vitro ADME
Procedure: as §1, §2

CYP 3A4 = CYP 3A4 (Homo sapiens (Human), UniProt P08684); assay: as above; format: in vitro ADME; settings: 30 minutes, read-out: Subtypes IC50 3A4
Procedure: as §1, §2

CYP2C19 = CYP2C19 (Homo sapiens (Human), UniProt P33261); assay: as above; format: in vitro ADME; settings: 30 minutes, read-out: Subtypes IC50 2C19
Procedure: as §1, §2

[2] = In vivo pharmacokinetics (PK) study in rats; set-up: species or system SD rats; settings: rat
[3] = Stability of human liver microsomes in vitro; format: in vitro ADME
Procedure: 300 μL of a final incubation system contains 30 μL of liver microsomes (protein concentration: 0.15 mg/mL), 30 μL NADPH+MgCl2, 3 μL substrate (formulated with acetonitrile), and 237 μL PBS buffer. Duplicate incubation systems of 0.3 mL each were formulated for each species. A total volume of 270 μL of a uniformly mixed solution of the substrate and the enzyme was formulated in each tube, the solution and NADPH were pre-incubated at 37° C. for 5 minutes, respectively. Then 30 μL of the mixed solution of NADPH+MgCl2 was added for reaction. 50 μL of the reaction solution was taken out at 0, 10, 30, and 60 mins, and the reaction was terminated with 300 μL of ice acetonitrile containing an internal standard.
Sample pre-treatment: To 50 μL of the incubated sample was added 300 μL of ice acetonitrile containing diazepam as an internal standard and then precipitated. After vortexing for 5 minutes, the sample was centrifugated (12000 rpm, 4° C.) for 10 minutes. 75 μL of the supernatant was pipetted into a 96-well plate, and then diluted with 75 μL ultrapure water and mixed uniformly. 0.5 μL of the resulting solution was injected and analyzed by LC-MS/MS.

[4] = Solubility in PBS buffer at pH 7.4; format: physicochemical; settings: aqueous buffer, PBS buffer pH 7.4, 25° C.
Procedure: […] After standing at 25° C. for 16 hours, the system was centrifugated (12000 rpm, room temperature) for 10 min. 20 μL of the supernatant was taken out, and the reaction was terminated with 400 μL of acetonitrile containing an internal standard (diazepam 20 ng/mL). 30 μL of the supernatant was pipetted, and 150 μL of 50% acetonitrile aqueous solution was added thereto for dilution and mixed uniformly. 0.5 μL of the resulting solution was injected for analysis.

[5] = In vivo pharmacokinetics (PK) study in mice; settings: ICR mice, po 30 mg/kg
Procedure: ICR mice, weighing 18-20 g, were randomly divided into groups of three mice each after 3 to 5 days' acclimatization, and a series of the compounds were administered intragastrically to each group at a dose of 30 mg/kg. The test animals (ICR mice) were fasted for 12 hours before the administration and fed 4 hours after the administration. They were free to access water before and after the experiment. After the intragastric administration, about 0.1 mL of blood was collected from the orbits. Within 30 minutes after anticoagulation with EDTA-K2, the plasma was separated by centrifugation at 4° C. and 4000 rpm for 10 minutes. Immediately after collecting all plasma, it was stored at −20° C. for testing. 20 μL of the plasma sample to be tested and standard curve sample were pipetted, and then thereto was added 200 μL of an acetonitrile solution containing an internal standard (diazepam 20 mg/mL). The resulting mixture was oscillated and mixed uniformly for 5 min, and then centrifugated at 12000 rpm for 10 min. 75 μL supernatant was pipetted, and 75 μL ultrapure water was added thereto for dilution, and mixed evenly. 1 μL of the resulting solution was pipetted for LC/MS/MS determination.

[6] = rat, plasma, SD rats, PO 20 mg/kg

Chain of CYP 2B6 (P20813 whole entry): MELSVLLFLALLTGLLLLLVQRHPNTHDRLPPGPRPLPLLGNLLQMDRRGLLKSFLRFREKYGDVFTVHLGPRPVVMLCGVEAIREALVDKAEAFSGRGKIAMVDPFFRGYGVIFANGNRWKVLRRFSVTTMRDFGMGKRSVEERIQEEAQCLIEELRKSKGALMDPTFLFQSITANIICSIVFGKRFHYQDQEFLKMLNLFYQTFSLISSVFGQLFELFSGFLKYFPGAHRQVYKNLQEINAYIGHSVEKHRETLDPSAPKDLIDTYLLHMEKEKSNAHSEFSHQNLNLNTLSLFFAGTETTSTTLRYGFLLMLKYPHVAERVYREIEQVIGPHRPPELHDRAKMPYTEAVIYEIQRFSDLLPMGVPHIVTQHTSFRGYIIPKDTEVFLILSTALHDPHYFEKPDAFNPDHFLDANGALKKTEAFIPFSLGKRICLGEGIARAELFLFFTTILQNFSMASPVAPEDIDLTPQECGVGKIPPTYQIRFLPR
Chain of CYP2C19 (P33261 whole entry): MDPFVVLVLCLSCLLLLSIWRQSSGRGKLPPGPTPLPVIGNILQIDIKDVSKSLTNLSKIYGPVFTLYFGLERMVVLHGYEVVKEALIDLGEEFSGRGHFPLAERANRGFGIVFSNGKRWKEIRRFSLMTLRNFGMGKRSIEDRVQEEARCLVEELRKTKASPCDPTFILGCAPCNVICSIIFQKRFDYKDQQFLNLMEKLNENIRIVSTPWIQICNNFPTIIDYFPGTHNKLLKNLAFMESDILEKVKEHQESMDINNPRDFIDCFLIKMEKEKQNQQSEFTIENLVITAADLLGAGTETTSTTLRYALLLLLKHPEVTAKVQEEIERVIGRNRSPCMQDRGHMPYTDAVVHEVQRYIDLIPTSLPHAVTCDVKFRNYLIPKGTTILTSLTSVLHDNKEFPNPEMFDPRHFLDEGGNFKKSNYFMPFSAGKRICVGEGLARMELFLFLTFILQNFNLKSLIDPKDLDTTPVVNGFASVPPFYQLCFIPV
Chain of CYP 3A4 (P08684 whole entry): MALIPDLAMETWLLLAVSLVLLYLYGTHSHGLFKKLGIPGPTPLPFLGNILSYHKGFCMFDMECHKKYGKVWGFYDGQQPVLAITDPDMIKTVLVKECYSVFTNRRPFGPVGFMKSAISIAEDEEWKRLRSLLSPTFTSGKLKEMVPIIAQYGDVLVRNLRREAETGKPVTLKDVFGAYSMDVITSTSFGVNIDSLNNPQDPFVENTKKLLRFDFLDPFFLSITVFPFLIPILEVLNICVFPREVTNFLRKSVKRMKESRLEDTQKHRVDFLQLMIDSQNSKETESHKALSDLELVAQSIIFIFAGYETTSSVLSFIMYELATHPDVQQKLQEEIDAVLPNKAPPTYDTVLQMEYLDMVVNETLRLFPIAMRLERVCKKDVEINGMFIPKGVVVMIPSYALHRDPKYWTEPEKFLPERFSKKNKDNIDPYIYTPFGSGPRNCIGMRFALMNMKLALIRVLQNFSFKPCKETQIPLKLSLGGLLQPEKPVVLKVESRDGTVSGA
Chain of CYP1A2 (P05177 whole entry): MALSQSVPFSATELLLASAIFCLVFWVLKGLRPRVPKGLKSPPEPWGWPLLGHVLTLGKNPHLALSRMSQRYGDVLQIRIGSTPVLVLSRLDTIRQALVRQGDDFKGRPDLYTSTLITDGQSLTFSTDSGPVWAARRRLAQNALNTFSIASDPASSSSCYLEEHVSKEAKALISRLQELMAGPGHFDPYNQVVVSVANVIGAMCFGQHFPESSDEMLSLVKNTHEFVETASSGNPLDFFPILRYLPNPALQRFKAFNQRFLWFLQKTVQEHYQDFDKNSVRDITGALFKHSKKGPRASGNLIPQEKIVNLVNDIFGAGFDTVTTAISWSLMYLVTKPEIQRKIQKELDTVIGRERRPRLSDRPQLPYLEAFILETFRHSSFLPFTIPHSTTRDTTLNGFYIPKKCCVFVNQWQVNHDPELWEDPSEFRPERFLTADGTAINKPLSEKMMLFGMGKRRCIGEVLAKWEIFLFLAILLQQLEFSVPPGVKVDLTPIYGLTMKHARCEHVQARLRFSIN

SMILES | F ([1]; SD rats, PO 20 mg/kg vs IV 5 mg/kg) | half-life ([1]; SD, rat, in vivo, po, 20 mg/kg) | AUC(0-inf) [1, 6] | Cmax [1, 6] | AUC(0-t) ([1]; rat, plasma, SD rats, PO 20 mg/kg, read-out: AUC(0-48 h)) | IC50 (CYP 2B6) | IC50 (CYP1A2) | IC50 (CYP 3A4) | IC50 (CYP2C19) | half-life ([2]; SD, in vivo, iv, 5 mg/kg) | AUC(0-inf) ([2]; plasma, SD rats, IV 5 mg/kg) | Cmax ([2]; plasma, SD rats, IV 5 mg/kg) | clearance ([2]; plasma, SD rats, IV 5 mg/kg) | AUC(0-t) ([2]; plasma, SD rats, IV 5 mg/kg, read-out: AUC(0-48 h)) | Vd ([2]; plasma, SD rats, IV 5 mg/kg, read-out: Vz) | Remaining (%) at 60 min [3] | solubility at 16 h [4] | Liver AUC(0-8 h) ([5]; 0.25 h, 3 h, 8 h) | Plasma AUC(0-8 h) ([5]; blood at 0.25 h, 3 h, 8 h) | Kp ([5]; mouse, liver/blood, AUC(0-8 h), read-out: Liver to blood ratio)
Cc1c(C(=O)Nc2ccc(F)c(C#N)c2)c(C)n(C)c1C(=O)C(=O)N[C@@H](C)C(F)(F)F [Example 12] | 57% | 219 min | 62300 ng·h/mL | 5020 ng/mL | 62000 ng·h/mL | 146 µM | 46.4 µM | > 200 µM | 60 µM | 205 min | 27100 ng·h/mL | 6270 ng/mL | 3.1 mL/min/kg | 27100 ng·h/mL | 0.914 L/kg | 78.8% | 8.1 µM (≈ 3.55 µg/mL) |  |  | 
Cc1c(C(=O)Nc2ccc(F)c(C#N)c2)c(C)n(C)c1C(=O)C(=O)NC1(C(F)(F)F)COC1 [Example 25, N-(3-cyano-4-fluorophenyl)-1,2,4-trimethyl-5-(2-oxo-2-((3-(trifluoromethyl)oxetan-3-yl)amino)acetyl)-1H-pyrrole-3-carboxamide] |  |  |  |  |  | 61.1 µM | 229 µM | 76 µM | 24.9 µM |  |  |  |  |  |  |  |  | 315435 ng/g | 37732 ng/mL | 8.36
